Test results taken from patent US20240209028A1, “CNP COMPOUNDS” (priority 2022, published 2024).
One block for each compound: values may come before it. Starred links: 1 amine or outer side, 2 acyl side, 3 side chain; linkers in the order of their positions; H or OH if unused. Positions of bridges follow the written chain, without caps; N, C: chain ends. Residues, ends and D or L forms follow the SMILES beside them. *: point of attachment. C18 diacid = O=C(O)CCCCCCCCCCCCCCCCC(=O)*; γGlu = O=C(O)[C@H](CCC(=O)[*:2])N[*:1]; AEEA = NCCOCCOCC(=O)O

Biological target: T1, human natriuretic peptide receptor 2 (hNPR2) (Homo sapiens, UniProt P20594)
T1 construct: expressed in transfected cells; host or cells: HEK293 (ATCC CRL-1573), clone 35, co-transfected with pGloSensor-42F
T1 sequence (P20594 23-1047): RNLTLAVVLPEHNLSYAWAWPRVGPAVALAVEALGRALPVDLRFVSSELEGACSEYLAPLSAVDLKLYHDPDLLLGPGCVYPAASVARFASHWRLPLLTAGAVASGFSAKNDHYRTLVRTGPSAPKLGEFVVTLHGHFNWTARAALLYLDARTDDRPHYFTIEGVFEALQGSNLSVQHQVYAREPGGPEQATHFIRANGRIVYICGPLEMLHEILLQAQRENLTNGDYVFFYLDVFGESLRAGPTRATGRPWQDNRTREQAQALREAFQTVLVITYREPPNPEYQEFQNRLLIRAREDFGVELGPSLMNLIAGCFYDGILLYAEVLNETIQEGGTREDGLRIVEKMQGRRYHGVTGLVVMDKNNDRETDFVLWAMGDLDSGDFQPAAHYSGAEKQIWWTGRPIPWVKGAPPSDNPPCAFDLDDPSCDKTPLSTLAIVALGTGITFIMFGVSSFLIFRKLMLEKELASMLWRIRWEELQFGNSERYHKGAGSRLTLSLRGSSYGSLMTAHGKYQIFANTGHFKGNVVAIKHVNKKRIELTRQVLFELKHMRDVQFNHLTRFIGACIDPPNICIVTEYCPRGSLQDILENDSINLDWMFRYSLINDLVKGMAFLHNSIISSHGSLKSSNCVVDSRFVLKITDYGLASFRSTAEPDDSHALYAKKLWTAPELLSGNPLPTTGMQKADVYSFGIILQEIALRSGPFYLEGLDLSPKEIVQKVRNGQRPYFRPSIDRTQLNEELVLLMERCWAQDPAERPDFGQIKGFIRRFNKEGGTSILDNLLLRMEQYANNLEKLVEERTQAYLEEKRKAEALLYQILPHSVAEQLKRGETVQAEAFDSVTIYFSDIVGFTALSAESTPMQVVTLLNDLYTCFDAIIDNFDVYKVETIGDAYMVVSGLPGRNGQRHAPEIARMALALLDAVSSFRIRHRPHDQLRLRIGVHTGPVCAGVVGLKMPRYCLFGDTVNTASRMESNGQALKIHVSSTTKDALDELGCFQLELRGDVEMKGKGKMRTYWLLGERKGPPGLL
Assay: In vitro hNPR2 activity assay (cGMP GloSensor reporter, HEK293)
Format: cell-based
Settings: for EC50: 0% HSA, HEK293-hNPR2/GloSensor cells; for hNPR2 0% HSA. [EC50% rel CNP]: potency relative to CNP22 (0065)
Procedure, shortened: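 Potency is the EC50 from a four-parameter logistic fit, also expressed relative to the in-plate CNP22 control (×100), with at least two replicates. Compounds (ten concentrations, […], HSA-free diluent with 1% OVA, 0.01% Tween20) were incubated 30 min at 37 °C on HEK293 cells co-expressing hNPR2 and a GloSensor cGMP luciferase. Luminescence detected with Bright-Glo.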

Structure (SMILES): CC[C@H](C)[C@@H]1NC(=O)[C@H](CCCNC(=N)N)NC(=O)[C@H](CCC(=O)O)NC(=O)[C@H](CC(C)C)NC(=O)[C@H](CCCCN)NC(=O)[C@H](CC(C)C)NC(=O)CNC(=O)[C@H](Cc2ccccc2)NC(=O)[C@@H](NC(=O)CNC(=O)[C@H](CCCCN)NC(=O)[C@H](CO)NC(=O)[C@H](CC(C)C)NC(=O)CNC(=O)[C@H](Cc2c[nH]cn2)NC(=O)[C@H](Cc2c[nH]cn2)NC(=O)[C@H](CCC(N)=O)NC(=O)[C@H](C)NC(=O)CNC(=O)[C@H](Cc2c[nH]cn2)NC(=O)[C@H](Cc2ccc(O)cc2)NC(=O)COCCOCCNC(=O)COCCOCCNC(=O)CC[C@H](NC(=O)CC[C@H](NC(=O)CCCCCCCCCCCCCCCCC(=O)O)C(=O)O)C(=O)O)CSSC[C@@H](C(=O)O)NC(=O)CNC(=O)[C@H](CC(C)C)NC(=O)CNC(=O)[C@H](CO)NC(=O)[C@H](CC(C)C)NC(=O)[C@H](CO)NC(=O)CNC1=O [compound 1323] ({C18 diacid-γGlu-γGlu-AEEA-AEEA}-YHGAQHHGLSKGCFGLKLERIGSLSGLGC-OH; disulfide 13-29; C-terminus assumed)
EC50: 11.2 nM | hNPR2 0% HSA. [EC50% rel CNP]: 0.8%

Structure (SMILES): CC[C@H](C)[C@@H]1NC(=O)[C@H](CCCNC(=N)N)NC(=O)[C@H](CCC(=O)O)NC(=O)[C@H](CC(C)C)NC(=O)[C@H](CCCCN)NC(=O)[C@H](CC(C)C)NC(=O)CNC(=O)[C@H](Cc2ccccc2)NC(=O)[C@@H](NC(=O)CNC(=O)[C@H](CCC(N)=O)NC(=O)[C@H](CO)NC(=O)[C@H](CC(C)C)NC(=O)CNC(=O)[C@H](Cc2c[nH]cn2)NC(=O)[C@H](Cc2c[nH]cn2)NC(=O)[C@H](CCC(N)=O)NC(=O)[C@H](C)NC(=O)CNC(=O)[C@H](CCCCN)NC(=O)[C@H](Cc2ccc(O)cc2)NC(=O)COCCOCCNC(=O)COCCOCCNC(=O)CC[C@H](NC(=O)CC[C@H](NC(=O)CCCCCCCCCCCCCCCCC(=O)O)C(=O)O)C(=O)O)CSSC[C@@H](C(=O)O)NC(=O)CNC(=O)[C@H](CC(C)C)NC(=O)CNC(=O)[C@H](CO)NC(=O)[C@H](CC(C)C)NC(=O)[C@H](CO)NC(=O)CNC1=O [compound 1324] ({C18 diacid-γGlu-γGlu-AEEA-AEEA}-YKGAQHHGLSQGCFGLKLERIGSLSGLGC-OH; disulfide 13-29)
EC50: 5.51 nM | hNPR2 0% HSA. [EC50% rel CNP]: 1.6%

Structure (SMILES): CC[C@H](C)[C@@H]1NC(=O)[C@H](CCCNC(=N)N)NC(=O)[C@H](CCC(=O)O)NC(=O)[C@H](CC(C)C)NC(=O)[C@@H]2CCCN2C(=O)[C@H](CC(C)C)NC(=O)CNC(=O)[C@H](Cc2ccccc2)NC(=O)[C@@H](NC(=O)CNC(=O)[C@H](CO)NC(=O)[C@H](CO)NC(=O)[C@H](CC(C)C)NC(=O)CNC(=O)[C@H](CCCCN)NC(=O)[C@H](CCCCN)NC(=O)[C@H](CCC(N)=O)NC(=O)[C@H](C)NC(=O)CNC(=O)[C@H](CCC(=O)O)NC(=O)[C@H](Cc2ccc(O)cc2)NC(=O)COCCOCCNC(=O)COCCOCCNC(=O)CC[C@H](NC(=O)CCCCCCCCCCCCCCCCC(=O)O)C(=O)O)CSSC[C@@H](C(=O)O)NC(=O)CNC(=O)[C@H](CC(C)C)NC(=O)CNC(=O)[C@H](CO)NC(=O)[C@H](CC(C)C)NC(=O)[C@H](CO)NC(=O)CNC1=O [compound 1338] ({C18 diacid-γGlu-AEEA-AEEA}-YEGAQKKGLSSGCFGLPLERIGSLSGLGC-OH; disulfide 13-29)
EC50: 6.77 nM | hNPR2 0% HSA. [EC50% rel CNP]: 1.3%

Structure (SMILES): CC[C@H](C)[C@@H]1NC(=O)[C@H](CCCNC(=N)N)NC(=O)[C@H](CC(=O)O)NC(=O)[C@H](CC(C)C)NC(=O)[C@@H]2CCCN2C(=O)[C@H](CC(C)C)NC(=O)CNC(=O)[C@H](Cc2ccccc2)NC(=O)[C@@H](NC(=O)CNC(=O)[C@H](CO)NC(=O)[C@H](CO)NC(=O)[C@H](CC(C)C)NC(=O)CNC(=O)[C@H](CCCCN)NC(=O)[C@H](CCCCN)NC(=O)[C@H](CCC(N)=O)NC(=O)[C@H](C)NC(=O)CNC(=O)[C@H](CCC(=O)O)NC(=O)COCCOCCNC(=O)COCCOCCNC(=O)CC[C@H](NC(=O)CCCCCCCCCCCCCCCCC(=O)O)C(=O)O)CSSC[C@@H](C(=O)O)NC(=O)CNC(=O)[C@H](CC(C)C)NC(=O)CNC(=O)[C@H](CO)NC(=O)[C@H](CC(C)C)NC(=O)[C@H](CO)NC(=O)CNC1=O [compound 1339] ({C18 diacid-γGlu-AEEA-AEEA}-EGAQKKGLSSGCFGLPLDRIGSLSGLGC-OH; disulfide 12-28)
hNPR2 0% HSA. [EC50% rel CNP]: 15.5%

Structure (SMILES): CC[C@H](C)[C@@H]1NC(=O)[C@H](CCCNC(=N)N)NC(=O)[C@H](CC(=O)O)NC(=O)[C@H](CC(C)C)NC(=O)[C@H](CCCCN)NC(=O)[C@H](CC(C)C)NC(=O)CNC(=O)[C@H](Cc2ccccc2)NC(=O)[C@@H](NC(=O)CNC(=O)[C@H](CCC(N)=O)NC(=O)[C@H](CO)NC(=O)[C@H](CC(C)C)NC(=O)CNC(=O)[C@H](Cc2c[nH]cn2)NC(=O)[C@H](Cc2c[nH]cn2)NC(=O)[C@H](CCC(N)=O)NC(=O)[C@H](C)NC(=O)CNC(=O)[C@H](CCCCN)NC(=O)[C@H](Cc2ccc(O)cc2)NC(=O)COCCOCCNC(=O)COCCOCCNC(=O)CC[C@H](NC(=O)CCCCCCCCCCCCCCCCC(=O)O)C(=O)O)CSSC[C@@H](C(=O)O)NC(=O)CNC(=O)[C@H](CC(C)C)NC(=O)CNC(=O)[C@H](CO)NC(=O)[C@H](CC(C)C)NC(=O)[C@H](CO)NC(=O)CNC1=O [compound 1340] ({C18 diacid-γGlu-AEEA-AEEA}-YKGAQHHGLSQGCFGLKLDRIGSLSGLGC-OH; disulfide 13-29)
EC50: 0.18 nM | hNPR2 0% HSA. [EC50% rel CNP]: 44.4%

Structure (SMILES): CC[C@H](C)[C@@H]1NC(=O)[C@H](CCCNC(=N)N)NC(=O)[C@H](CC(=O)O)NC(=O)[C@H](CC(C)C)NC(=O)[C@@H]2CCCN2C(=O)[C@H](CC(C)C)NC(=O)CNC(=O)[C@H](Cc2ccccc2)NC(=O)[C@@H](NC(=O)CNC(=O)[C@H](CCC(N)=O)NC(=O)[C@H](CO)NC(=O)[C@H](CC(C)C)NC(=O)CNC(=O)[C@H](Cc2c[nH]cn2)NC(=O)[C@H](Cc2c[nH]cn2)NC(=O)[C@H](CCC(N)=O)NC(=O)[C@H](C)NC(=O)CNC(=O)[C@H](CCCCN)NC(=O)[C@H](Cc2ccc(O)cc2)NC(=O)COCCOCCNC(=O)COCCOCCNC(=O)CC[C@H](NC(=O)CCCCCCCCCCCCCCCCC(=O)O)C(=O)O)CSSC[C@@H](C(=O)O)NC(=O)CNC(=O)[C@H](CC(C)C)NC(=O)CNC(=O)[C@H](CO)NC(=O)[C@H](CC(C)C)NC(=O)[C@H](CO)NC(=O)CNC1=O [compound 1341] ({C18 diacid-γGlu-AEEA-AEEA}-YKGAQHHGLSQGCFGLPLDRIGSLSGLGC-OH; disulfide 13-29; C-terminus assumed)
hNPR2 0% HSA. [EC50% rel CNP]: 16.7%

EC50: 0.38 nM | hNPR2 0% HSA. [EC50% rel CNP]: 21.1%
Structure (SMILES): CC[C@H](C)[C@@H]1NC(=O)[C@H](CCCNC(=N)N)NC(=O)[C@H](CC(=O)O)NC(=O)[C@H](CC(C)C)NC(=O)[C@H](CCCCN)NC(=O)[C@H](CC(C)C)NC(=O)CNC(=O)[C@H](Cc2ccccc2)NC(=O)[C@@H](NC(=O)CNC(=O)[C@H](CCCCN)NC(=O)[C@H](CO)NC(=O)[C@H](CC(C)C)NC(=O)CNC(=O)[C@H](Cc2c[nH]cn2)NC(=O)[C@H](Cc2c[nH]cn2)NC(=O)[C@H](CCC(N)=O)NC(=O)[C@H](C)NC(=O)CNC(=O)[C@H](Cc2c[nH]cn2)NC(=O)[C@H](Cc2ccc(O)cc2)NC(=O)COCCOCCNC(=O)COCCOCCNC(=O)CC[C@H](NC(=O)CCCCCCCCCCCCCCCCC(=O)O)C(=O)O)CSSC[C@@H](C(=O)O)NC(=O)CNC(=O)[C@H](CC(C)C)NC(=O)CNC(=O)[C@H](CO)NC(=O)[C@H](CC(C)C)NC(=O)[C@H](CO)NC(=O)CNC1=O [compound 1345] ({C18 diacid-γGlu-AEEA-AEEA}-YHGAQHHGLSKGCFGLKLDRIGSLSGLGC-OH; disulfide 13-29)

Structure (SMILES): CC[C@H](C)[C@@H]1NC(=O)[C@H](CCCNC(=N)N)NC(=O)[C@H](CC(=O)O)NC(=O)[C@H](CC(C)C)NC(=O)[C@@H]2CCCN2C(=O)[C@H](CC(C)C)NC(=O)CNC(=O)[C@H](Cc2ccccc2)NC(=O)[C@@H](NC(=O)CNC(=O)[C@H](CCCCN)NC(=O)[C@H](CO)NC(=O)[C@H](CC(C)C)NC(=O)CNC(=O)[C@H](Cc2c[nH]cn2)NC(=O)[C@H](Cc2c[nH]cn2)NC(=O)[C@H](CCC(N)=O)NC(=O)[C@H](C)NC(=O)CNC(=O)[C@H](Cc2c[nH]cn2)NC(=O)[C@H](Cc2ccc(O)cc2)NC(=O)COCCOCCNC(=O)COCCOCCNC(=O)CC[C@H](NC(=O)CCCCCCCCCCCCCCCCC(=O)O)C(=O)O)CSSC[C@@H](C(=O)O)NC(=O)CNC(=O)[C@H](CC(C)C)NC(=O)CNC(=O)[C@H](CO)NC(=O)[C@H](CC(C)C)NC(=O)[C@H](CO)NC(=O)CNC1=O [compound 1346] ({C18 diacid-γGlu-AEEA-AEEA}-YHGAQHHGLSKGCFGLPLDRIGSLSGLGC-OH; disulfide 13-29; C-terminus assumed)
hNPR2 0% HSA. [EC50% rel CNP]: 17.0%
